Laboratory results as given in patent US9718828B2 (MERCK SHARP & DOHME CORP., priority 2011, dated 2017).
Where a name gives a salt, the structure may show the parent alone.

These molecules were tested against hBTK (full-length BTK, 6HIS-tag cleaved) (Homo sapiens (Human), UniProt Q06187) (assay: BTK enzymatic activity, LANCE TR-FRET assay (Assay Method C)). Conditions: LANCE TR-FRET, 50 pM hBTK, 25 μM ATP; class 100-1000 is given as ≧100 nM-<1 μM; read-out: IC50 Btk activity values - Assay Method C.
Sequence of hBTK (full-length BTK, 6HIS-tag cleaved) (Q06187 whole entry): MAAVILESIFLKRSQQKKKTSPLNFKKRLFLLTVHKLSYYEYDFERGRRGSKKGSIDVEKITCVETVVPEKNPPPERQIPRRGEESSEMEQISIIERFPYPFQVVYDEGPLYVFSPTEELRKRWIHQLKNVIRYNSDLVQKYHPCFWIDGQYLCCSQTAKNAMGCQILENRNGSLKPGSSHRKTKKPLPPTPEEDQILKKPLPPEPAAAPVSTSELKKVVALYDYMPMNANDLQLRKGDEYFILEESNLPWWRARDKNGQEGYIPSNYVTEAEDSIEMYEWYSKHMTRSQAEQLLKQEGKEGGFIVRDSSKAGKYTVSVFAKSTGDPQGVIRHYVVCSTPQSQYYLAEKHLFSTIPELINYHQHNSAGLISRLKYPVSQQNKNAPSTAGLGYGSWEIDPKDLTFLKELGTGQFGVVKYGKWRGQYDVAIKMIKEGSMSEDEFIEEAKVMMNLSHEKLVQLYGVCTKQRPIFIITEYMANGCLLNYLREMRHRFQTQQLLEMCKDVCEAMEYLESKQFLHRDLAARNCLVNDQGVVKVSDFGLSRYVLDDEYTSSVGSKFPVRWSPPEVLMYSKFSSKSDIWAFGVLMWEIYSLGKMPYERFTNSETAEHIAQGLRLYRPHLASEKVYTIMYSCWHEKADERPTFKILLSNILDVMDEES
Assay type: biochemical

IC50, 10 to 100 nM:
CC1(C(=O)N2CCC[C@@H](c3nc(-c4ccc(C(=O)Nc5cnsc5)cc4)c4c(N)nccn34)C2)COC1 [Example 370, 4-(8-amino-3-{(3R)-1-[(3-methyloxetan-3-yl)carbonyl]piperidin-3-yl}imidazo[1,5-a]pyrazin-1-yl)-N-isothiazol-4-ylbenzamide]
CC1(C(=O)N2CCC[C@@H](c3nc(-c4ccc(C(=O)Nc5cscn5)cc4)c4c(N)nccn34)C2)COC1 [Example 350, 4-(8-amino-3-{(3R)-1-[(3-methyloxetan-3-yl)carbonyl]piperidin-3-yl}imidazo[1,5-a]pyrazin-1-yl)-N-1,3-thiazol-4-ylbenzamide]
CC1(C(=O)N2CCC[C@@H](c3nc(-c4ccc(C(=O)Nc5ncc6c(n5)CCC6)cc4)c4c(N)nccn34)C2)COC1 [Example 364, 4-(8-amino-3-{(3R)-1-[(3-methyloxetan-3-yl)carbonyl]piperidin-3-yl}imidazo[1,5-a]pyrazin-1-yl)-N-(6,7-dihydro-5H-cyclopenta[d]pyrimidin-2-yl)benzamide]
Nc1nccn2c([C@@H]3CN[C@H](CO)CO3)nc(-c3ccc(C(=O)Nc4cc(C(F)(F)F)ccn4)cc3)c12 [Example 547, 4-{8-amino-3-[(2S,5R)-5-(hydroxymethyl)morpholin-2-yl]imidazo[1,5-a]pyrazin-1-yl}-N-[4-(trifluoromethyl)pyridin-2-yl]benzamide, TFA salt]
CC1(C(=O)N2CCC[C@@H](c3nc(-c4ccc(C(=O)Nc5ncns5)cc4)c4c(N)nccn34)C2)COC1 [Example 368, 4-(8-amino-3-{(3R)-1-[(3-methyloxetan-3-yl)carbonyl]piperidin-3-yl}imidazo[1,5-a]pyrazin-1-yl)-N-1,2,4-thiadiazol-5-ylbenzamide]
CC1(C(=O)N2CCC[C@@H](c3nc(-c4ccc(C(=O)Nc5cc(C(F)(F)F)ccn5)cc4)c4c(N)ncc(C=O)n34)C2)COC1 [Example 464, 4-(8-amino-5-formyl-3-{(3R)-1-[(3-methyloxetan-3-yl)carbonyl]piperidin-3-yl}imidazo[1,5-a]pyrazin-1-yl)-N-[4-(trifluoromethyl)pyridin-2-yl]benzamide]

IC50, < 10 nM:
CCC(=O)N1C[C@@H](c2nc(-c3ccc(C(=O)Nc4cc(C(F)(F)F)ccn4)cc3)c3c(N)nccn23)CC[C@@H]1C(F)(F)F [Example 415, 4-{8-amino-3-[(3S,6R)-1-propanoyl-6-(trifluoromethyl)piperidin-3-yl]imidazo[1,5-a]pyrazin-1-yl}-N-[4-(trifluoromethyl)pyridin-2-yl]benzamide]
Nc1nccn2c([C@@H]3CCCN(C(=O)C4(O)CC4)C3)nc(-c3ccc(C(=O)Nc4cc(C(F)(F)F)ccn4)cc3)c12 [Example 342, 4-(8-amino-3-{(3R)-1-[(1-hydroxycyclopropyl)carbonyl]piperidin-3-yl}imidazo[1,5-a]pyrazin-1-yl)-N-[4-(trifluoromethyl)pyridin-2-yl]benzamide]
CC(=O)N1C[C@H](c2nc(-c3ccc(C(=O)Nc4cc(C(F)F)ccn4)cc3F)c3c(N)ncc(C)n23)CC[C@@H]1C [Example 461, 4-{3-[(3R,6S)-1-acetyl-6-methylpiperidin-3-yl]-8-amino-5-methylimidazo[1,5-a]pyrazin-1-yl}-N-[4-(difluoromethyl)pyridin-2-yl]-3-fluorobenzamide]
COCC(=O)N1CCO[C@@H](c2nc(-c3ccc(C(=O)Nc4cc(C(F)(F)F)ccn4)cc3)c3c(N)ncc(Cl)n23)C1 [Example 528, 4-{8-amino-5-chloro-3-[(2R)-4-(methoxyacetyl)morpholin-2-yl]imidazo[1,5-a]pyrazin-1-yl}-N-[4-(trifluoromethyl)pyridin-2-yl]benzamide]
CCC(=O)N1CCC[C@@H](c2nc(-c3ccc(C(=O)Nc4cc(C(F)F)ccn4)cc3F)c3c(N)nccn23)C1 [Example 488, 4-{8-amino-3-[(3R)-1-propanoylpiperidin-3-yl]imidazo[1,5-a]pyrazin-1-yl}-N-[4-(difluoromethyl)pyridin-2-yl]-3-fluorobenzamide]
Cc1ccc(NC(=O)c2ccc(-c3nc([C@@H]4CCCN(C(=O)C5(C)COC5)C4)n4ccnc(N)c34)cc2)nc1 [Example 356, 4-(8-amino-3-{(3R)-1-[(3-methyloxetan-3-yl)carbonyl]piperidin-3-yl}imidazo[1,5-a]pyrazin-1-yl)-N-(5-methylpyridin-2-yl)benzamide]
Nc1nccn2c([C@@H]3CCCN(C(=O)NC4CC4)C3)nc(-c3ccc(C(=O)Nc4cc(C(F)(F)F)ccn4)cc3F)c12 [Example 489, (3R)-3-[8-amino-1-(2-fluoro-4-{[4-(trifluoromethyl)pyridin-2-yl]carbamoyl}phenyl)imidazo[1,5-a]pyrazin-3-yl]-N-cyclopropylpiperidine-1-carboxamide]
CC1(C(=O)N2CCO[C@@H](c3nc(-c4ccc(C(=O)Nc5cc(C(F)(F)F)ccn5)cc4)c4c(N)ncc(C#N)n34)C2)COC1 [Example 527, 4-(8-amino-5-cyano-3-{(2R)-4-[(3-methyloxetan-3-yl)carbonyl]morpholin-2-yl}imidazo[1,5-a]pyrazin-1-yl)-N-[4-(trifluoromethyl)pyridin-2-yl]benzamide]
CCc1ccnc(NC(=O)c2ccc(-c3nc([C@@H]4CCCN(C(=O)C5(O)CC5)C4)n4ccnc(N)c34)cc2)c1 [Example 371, 4-(8-amino-3-{(3R)-1-[(1-hydroxycyclopropyl)carbonyl]piperidin-3-yl}imidazo[1,5-a]pyrazin-1-yl)-N-(4-ethylpyridin-2-yl)benzamide]
COCC(=O)N1CCC[C@@H](c2nc(-c3ccc(C(=O)Nc4cc(C(F)(F)F)ccn4)cc3F)c3c(N)ncc(COC)n23)C1 [Example 452, 4-{8-amino-3-[(3R)-1-(methoxyacetyl)piperidin-3-yl]-5-(methoxymethyl)imidazo[1,5-a]pyrazin-1-yl}-3-fluoro-N-[4-(trifluoromethyl)pyridin-2-yl]benzamide]
Nc1nccn2c([C@@H]3CCCN(C(=O)[C@@H]4CC(F)(F)CN4)C3)nc(-c3ccc(C(=O)Nc4cc(C(F)(F)F)ccn4)cc3)c12 [Example 337, 4-{8-amino-3-[(3R)-1-(4,4-difluoro-L-prolyl)piperidin-3-yl]imidazo[1,5-a]pyrazin-1-yl}-N-[4-(trifluoromethyl)pyridin-2-yl]benzamide]
Nc1nccn2c([C@H]3CN(C4COC4)CCO3)nc(-c3ccc(C(=O)Nc4cc(C(F)(F)F)ccn4)cc3)c12 [Example 550, 4-{8-amino-3-[(2R)-4-oxetan-3-ylmorpholin-2-yl]imidazo[1,5-a]pyrazin-1-yl}-N-[4-(trifluoromethyl)pyridin-2-yl]benzamide, TFA salt]
COCC(=O)N1CCC[C@@H](n2nc(-c3ccc(C(=O)Nc4cc(C(F)(F)F)ccn4)cc3)c3c(N)nccc32)C1 [Example 383, 4-{4-amino-1-[(3R)-1-(methoxyacetyl)piperidin-3-yl]-1H-pyrazolo[4,3-c]pyridin-3-yl}-N-[4-(trifluoromethyl)pyridin-2-yl]benzamide]
Nc1ncc(Cl)n2c([C@@H]3CCCN(C(=O)CO)C3)nc(-c3ccc(C(=O)Nc4cc(C(F)(F)F)ccn4)cc3)c12 [Example 441, 4-{8-amino-5-chloro-3-[(3R)-1-(hydroxyacetyl)piperidin-3-yl]imidazo[1,5-a]pyrazin-1-yl}-N-[4-(trifluoromethyl)pyridin-2-yl]benzamide]
C[C@H]1CC[C@@H](c2nc(-c3ccc(C(=O)Nc4cc(C(F)(F)F)ccn4)c(F)c3)c3c(N)nccn23)CN1C(=O)C1(C)COC1 [Example 476, 4-(8-amino-3-{(3R,6S)-6-methyl-1-[(3-methyloxetan-3-yl)carbonyl]piperidin-3-yl}imidazo[1,5-a]pyrazin-1-yl)-2-fluoro-N-[4-(trifluoromethyl)pyridin-2-yl]benzamide]
COCC(=O)N1CCO[C@@H](c2nc(-c3ccc(C(=O)Nc4cc(C(F)(F)F)ccn4)cc3)c3c(N)nccn23)C1 [Example 521, 4-{8-amino-3-[(2R)-4-(methoxyacetyl)morpholin-2-yl]imidazo[1,5-a]pyrazin-1-yl}-N-[4-(trifluoromethyl)pyridin-2-yl]benzamide]
Cc1cnc(N)c2c(-c3ccc(C(=O)Nc4cc(C(F)(F)F)ccn4)cc3)nc([C@@H]3CCCN(C(=O)C4(C)COC4)C3)n12 [Example 453, 4-(8-amino-5-methyl-3-{(3R)-1-[(3-methyloxetan-3-yl)carbonyl]piperidin-3-yl}imidazo[1,5-a]pyrazin-1-yl)-N-[4-(trifluoromethyl)pyridin-2-yl]benzamide]
Cc1ccnc(NC(=O)c2ccc(-c3nc([C@H]4CC[C@H](C(F)(F)F)N(C(=O)C5CC5)C4)n4ccnc(N)c34)cc2)c1 [Example 425, 4-{8-amino-3-[(3S,6R)-1-(cyclopropylcarbonyl)-6-(trifluoromethyl)piperidin-3-yl]imidazo[1,5-a]pyrazin-1-yl}-N-(4-methylpyridin-2-yl)benzamide]
Cc1cnc(N)c2c(-c3ccc(C(=O)Nc4cc(C(F)(F)F)ccn4)cc3)nc([C@H]3CN(CCO)CCO3)n12 [Example 540, 4-{8-amino-3-[(2R)-4-(2-hydroxyethyl)morpholin-2-yl]-5-methylimidazo[1,5-a]pyrazin-1-yl}-N-[4-(trifluoromethyl)pyridin-2-yl]benzamide, TFA salt]
CCN1C[C@H](c2nc(-c3ccc(C(=O)Nc4cc(C(F)(F)F)ccn4)cc3)c3c(N)nccn23)OC[C@@H]1CO [Example 549, 4-{8-amino-3-[(2R,5S)-4-ethyl-5-(hydroxymethyl)morpholin-2-yl]imidazo[1,5-a]pyrazin-1-yl}-N-[4-(trifluoromethyl)pyridin-2-yl]benzamide, TFA salt]

Same assay, conditions: Table D; Assay Method C (LANCE TR-FRET), 50 pM hBTK, 25 μM ATP; read-out: IC50 BTK activity value

IC50, 0.892 nM:
COCC(=O)N1CCO[C@@H](c2nc(-c3ccc(C(=O)Nc4cc(C(F)(F)F)ccn4)cc3)c3c(N)ncc(Cl)n23)C1 [Example 528, 4-{8-amino-5-chloro-3-[(2R)-4-(methoxyacetyl)morpholin-2-yl]imidazo[1,5-a]pyrazin-1-yl}-N-[4-(trifluoromethyl)pyridin-2-yl]benzamide]

IC50, 0.322 nM:
C[C@H]1CC[C@@H](c2nc(-c3ccc(C(=O)Nc4cc(C(F)(F)F)ccn4)c(F)c3)c3c(N)nccn23)CN1C(=O)C1(C)COC1 [Example 476, 4-(8-amino-3-{(3R,6S)-6-methyl-1-[(3-methyloxetan-3-yl)carbonyl]piperidin-3-yl}imidazo[1,5-a]pyrazin-1-yl)-2-fluoro-N-[4-(trifluoromethyl)pyridin-2-yl]benzamide]
